Results: US10792272B2, “Methods for treatment of Clostridium difficile infections” (priority 2016, dated 2020)
In brackets after ≈: the same amount, converted by molar mass. One block for each compound: values may come before it.

Columns and labels:
[1] = system: C. difficile 630 (CD630, ATCC BAA-1382); assay: MIC by broth microdilution against C. difficile 630; type: cell-based, Clostridium difficile; conditions: Table 1, strain 630, 20-24 h, 37° C.
[2] = system: C. difficile 4118 (CD4118, ATCC BAA-1870, BI/NAP1/027); assay: MIC by broth microdilution against C. difficile 4118; type: cell-based, Clostridium difficile; conditions: Table 1, strain 4118, 20-24 h, 37° C.
[3] = system: C. difficile strains 630 (CD630) and 4118 (CD4118); assay: MIC / growth inhibition against C. difficile, covering both strains; type: cell-based, Clostridium difficile
[4] = system: B. thetaiotaomicron ATCC 29148; assay: microbe, parasite or virus in culture; type: cell-based; conditions: for MIC B. thetaiotaomicron ATCC 29148: anaerobic
P. distasonis ATCC 8503 = assay: MIC against anaerobic bacteria; type: cell-based, Parabacteroides distasonis; conditions: anaerobic
A. baumannii M2 = assay: MIC against aerobic bacteria; type: cell-based; conditions: aerobic
S. aureus RN4220 = assay: MIC against aerobic bacteria; type: cell-based; conditions: aerobic
[5] = system: panel of aerobic and anaerobic organisms; type: cell-based
S. epidermidis 1457 = assay: MIC against aerobic bacteria; type: cell-based; conditions: aerobic
[6] = system: C. clostridioforme ATCC 25537; assay: MIC against anaerobic bacteria; type: cell-based, Clostridium clostridioforme; conditions: anaerobic
P. aeruginosa PAO1 = assay: MIC against aerobic bacteria; type: cell-based, Pseudomonas aeruginosa; conditions: aerobic
C. sporogenes ATCC 15579 = assay: microbe, parasite or virus in culture; type: cell-based, Clostridium sporogenes
B. subtilis ATCC 6051 = assay: MIC against aerobic bacteria; type: cell-based, Bacillus subtilis; conditions: aerobic
P. nigrescens ATCC 33563 = assay: MIC against anaerobic bacteria; type: cell-based, Prevotella nigrescens; conditions: anaerobic
[7] = system: Clostridium difficile strain 4118; assay: Minimum bactericidal concentration (MBC), logarithmic- and stationary-phase cells; type: cell-based; conditions: stationary-phase cells of strain 4118; 3-log reduction of inoculum
Protocol: The MBClog values of the protonophores were determined to be 0.25-2 μg/mL (˜4 to 8-fold greater than their respective MIC values).
Clostridium difficile strain 4118 was grown to OD600˜0.4-0.5 (logarithmic phase) or for 24 h (stationary phase), and thereafter added to two-fold serial dilutions of test compounds. Cultures were incubated for 20-24 h at 37° C., and then viable counts were enumerated on BHIS agar plates. […] MBC measurements were performed in duplicate.

Compound: O=C(Nc1ccc(Oc2ccccc2)cc1)c1cc(I)cc(I)c1O [Compound 5a]
MIC C. difficile 630 [1]: 0.5 µg/mL (≈ 0.897 µM)
MIC C. difficile 4118 [2]: 1 µg/mL (≈ 1.79 µM)
growth inhibitory activity against CD630 and CD4118 (in words) [3]: high in vitro potency

Compound: O=C(Nc1ccc(Oc2ccc(Cl)cc2)cc1)c1cc(I)cc(I)c1 [Compound 5i]
MIC B. thetaiotaomicron ATCC 29148 [4]: >32 µg/mL
MIC P. distasonis ATCC 8503 (P. distasonis ATCC 8503): >32 µg/mL
MIC A. baumannii M2 (A. baumannii M2): >32 µg/mL
MIC S. aureus RN4220 (S. aureus RN4220): >32 µg/mL
antibacterial spectrum (in words) [5]: lacked antibacterial activity
MIC S. epidermidis 1457 (S. epidermidis 1457): >32 µg/mL
MIC C. clostridioforme ATCC 25537 [6]: >32 µg/mL
MIC C. difficile 630 [1]: >32 µg/mL
MIC P. aeruginosa PAO1 (P. aeruginosa PAO1): >32 µg/mL
MIC C. sporogenes ATCC 15579 (C. sporogenes ATCC 15579): >32 µg/mL
MIC B. subtilis ATCC 6051 (B. subtilis ATCC 6051): >32 µg/mL
MIC P. nigrescens ATCC 33563 (P. nigrescens ATCC 33563): >32 µg/mL
MIC C. difficile 4118 [2]: >32 µg/mL
growth inhibitory activity against CD630 and CD4118 (in words) [3]: inactive

Compound: Cc1ncc([N+](=O)[O-])n1CCO [Metronidazole, metronidazole, reference compound]
MIC ([4]; Bacteroides thetaiotaomicron, ATCC29148, read-out: MIC B. thetaiotaomicron ATCC 29148): 1 µg/mL (≈ 5.84 µM)
MIC (S. aureus RN4220; Staphylococcus aureus, RN4220, read-out: MIC S. aureus RN4220): > 32 µg/mL
antibacterial spectrum (in words) [5]: mainly targeted anaerobic bacteria
MIC ([1]; Clostridioides difficile, ATCCBAA1382): 0.25 µg/mL (≈ 1.46 µM)
MBCstat [7]: >32 µg/mL
MIC (C. sporogenes ATCC 15579; Clostridium sporogenes, ATCC15579, read-out: MIC C. sporogenes ATCC 15579): 0.25 µg/mL (≈ 1.46 µM)
MIC ([2]; Clostridioides difficile, ATCCBAA1870, read-out: MIC C. difficile 4118): 0.25 µg/mL (≈ 1.46 µM)

Compound: O=C(Nc1ccc(-c2ccccc2)cc1)c1cc(I)cc(I)c1O [Compound 7a]
MIC C. difficile 630 [1]: 0.5 µg/mL (≈ 0.924 µM)
MIC C. difficile 4118 [2]: 1 µg/mL (≈ 1.85 µM)

Compound: O=C(Nc1ccc(Oc2ccccc2)cc1)c1cc(I)cc(I)c1 [Compound 5c]
MIC C. difficile 630 [1]: >32 µg/mL
MIC C. difficile 4118 [2]: >32 µg/mL
growth inhibitory activity against CD630 and CD4118 (in words) [3]: inactive

Compound: COc1c(I)cc(I)cc1C(=O)Nc1ccc(Oc2ccc(Cl)cc2)cc1 [Compound 5h]
MIC C. difficile 630 [1]: >32 µg/mL
MIC C. difficile 4118 [2]: >32 µg/mL
growth inhibitory activity against CD630 and CD4118 (in words) [3]: inactive

Compound: O=C(Nc1ccc2ccccc2c1)c1cc(I)cc(I)c1O [Compound 6a]
MIC B. thetaiotaomicron ATCC 29148 [4]: >32 µg/mL
MIC P. distasonis ATCC 8503 (P. distasonis ATCC 8503): 16 µg/mL (≈ 31.1 µM)
MIC A. baumannii M2 (A. baumannii M2): >32 µg/mL
MIC S. aureus RN4220 (S. aureus RN4220): 0.25 µg/mL (≈ 0.485 µM)
MIC S. epidermidis 1457 (S. epidermidis 1457): 0.06 µg/mL (≈ 0.116 µM)
MIC C. clostridioforme ATCC 25537 [6]: 4 µg/mL (≈ 7.77 µM)
MIC C. difficile 630 [1]: 0.5 µg/mL (≈ 0.971 µM)
MIC P. aeruginosa PAO1 (P. aeruginosa PAO1): >32 µg/mL
MIC C. sporogenes ATCC 15579 (C. sporogenes ATCC 15579): 8 µg/mL (≈ 15.5 µM)
MIC B. subtilis ATCC 6051 (B. subtilis ATCC 6051): 0.06 µg/mL (≈ 0.116 µM)
MIC P. nigrescens ATCC 33563 (P. nigrescens ATCC 33563): 8 µg/mL (≈ 15.5 µM)
MIC C. difficile 4118 [2]: 0.5 µg/mL (≈ 0.971 µM)
growth inhibitory activity against CD630 and CD4118 (in words) [3]: high in vitro potency

More lines, main results first:

MIC C. difficile 630 [1]: 8 µg/mL (≈ 16 µM)
MIC C. difficile 4118 [2]: 8 µg/mL (≈ 16 µM)
MIC against C. difficile ([3]; one statement covering CD630 and CD4118): 8 µg/mL (≈ 16 µM)
Compound: O=C(Nc1ccccc1Cl)c1cc(I)cc(I)c1O [Compound 7c]

MIC C. difficile 630 [1]: >32 µg/mL
MIC C. difficile 4118 [2]: >32 µg/mL
Compound: O=C(Nc1ccc2ccccc2c1)c1cc(I)cc(I)c1 [Compound 6c]
growth inhibitory activity against CD630 and CD4118 (in words) [3]: inactive

MIC C. difficile 630 [1]: >32 µg/mL
MIC C. difficile 4118 [2]: >32 µg/mL
Compound: COc1c(I)cc(I)cc1C(=O)Nc1ccc2ccccc2c1 [Compound 6b]
growth inhibitory activity against CD630 and CD4118 (in words) [3]: inactive
